Row | Structure (SMILES) | melting point [°C]
1 | COc1ccc(-c2[nH]nc3c2C(=O)c2c(NC(=O)NN4CCOCC4)cccc2-3)cc1 [Example 4, 1-[3-(4-methoxy-phenyl)-4-oxo-2,4-dihydro-indeno[1,2-c]pyrazol-5-yl]-3-morpholin-4-yl-urea] | 290 to 291
2 | COc1ccc(-c2[nH]nc3c2C(=O)c2c(NC(N)=O)cccc2-3)cc1 [Example 5, [3-(4-methoxy-phenyl)-4-oxo-2,4-dihydro-indeno[1,2-c]pyrazol-5-yl]-urea] | 267 to 269
3 | COc1ccc(-c2[nH]nc3c2C(=O)c2c(NC(=O)CN4CCC(CN)CC4)cccc2-3)cc1 [Example 9, 2-(4-aminomethyl-piperidin-1-yl)-N-[3-(4-methoxy-phenyl)-4-oxo-2,4-dihydro-indeno[1,2-c]pyrazol-5-yl]-acetamide] | > 300
4 | COC(=O)Nc1cccc2c1C(=O)c1c-2n[nH]c1-c1ccc(OC)cc1 [Example 11, 3-(4-Methoxyphenyl)-5-methoxycarbonylamino-2H-indeno-[1,2-c]pyrazol-4-one] | > 300

Reference: patent publication US20040242869A1, “Semicarbazides and their uses” (priority 2001, published 2004)
